# Experiments:
# [1] = system: Veratrum californicum embryos; experiment: Embryogenic callus induction from mature embryos (% of embryogenesis); format: cell-based
# Method: (§1) Seeds of Veratrum californicum Durand were peeled, rinsed with 94% ethanol and surface sterilized with 1% (v/v) sodium hypochlorite supplemented with a few drops of Tween20 for 10 minutes, and finally rinsed three times with sterile water. Seeds were allowed to germinate for 2 days at 22° C. in the dark on moist filter paper. Embryos were excised and cultured on MS medium (11) solidified with gelrite (3% w/v) and supplemented with 1 mg/l kinetin and 1 mg/l NAA in the dark at 22° C. Produced calli were subcultured to fresh plates in two to three weeks intervals. After four months of culture calli were transferred to L2-medium (12) solidified with gelrite (3% w/v) and supplemented with 2.5 mg/l 2,4-D and were subsequentially subcultured to fresh plates at one month intervals. Embryogenic callus cultures from isolated V. californicum embryos were induced by the following media: Basal media MS (11), R2M (13), L2 (12), modified MS medium (mMS, consisting of MS basic salts and vitamins, 146 mg/l glutamine, 200 mg/l casein hydrolysate) and AA (14) supplemented with different hormones (picloram, NAA, 2,4-D, dicamba) at three levels (2, 4 and 7 mg/l) all solidified with gelrite (3% w/v). The cultures were kept in the dark, at 25° C. and embryogenic calli were subcultured at one month intervals.
# Frequencies of embryos producing embryogenic calli and frequencies of regenerated green and albino plants were recorded. Oxidative browning percentages of embryos were calculated. Completely randomized designs (CRD) were used in the experiments. Each Petri-dish with 20 embryos was considered an experimental unit and each treatment contained five replicates. Data analyses with two treatment levels were carried out by t-test, and with more than two treatment levels by the ANOVA procedure. Multi-range comparisons were performed by the LSD test.
# [2] = system: Veratrum californicum embryos; experiment: as above; format: cell-based; details: medium 502; data from 5 replicates
# suspension line B = experiment: Growth optimization of the suspension cell line B; format: cell-based, Veratrum californicum; details: AA medium, 4 mg/l
# Method: Growth of suspension line B on L2-medium with 2,4-D (2.5 mg/l) was further optimized. About 3 g (fw) of cells were transferred to an Erlenmeyer flask containing 50 ml liquid AA medium (with 2,4-D and NAA at levels of 2, 4 and 7 mg/l or without hormones), and incubated in the light (light intensity about 30-40 […] Osram cool white/Osram fluora, 1:1 on watt basis) on a rotary shaker (130 rpm) at 25° C. The volume of the liquid medium was added up to 100 ml after the second subculture. The suspensions were sub-cultured at three weeks intervals by replacing about half of the old culture with an equal volume of fresh medium.
# [3] = system: Veratrum californicum plant suspension cell lines; experiment: Elicitation of steroid alkaloid production in plant suspension cell lines; format: cell-based
# Method: 100 μl 0.5% SDS solution and 50 μl 25% NH4OH was added to 100 mg FW frozen cell powder. After mixing 1 ml toluene was added and the solution was extracted for 10 min in an ultrasonic bath. Following centrifugation the organic layer was collected and the sample residue was twice re-extracted with another 1 ml toluene. The organic phases were combined and the solvent was evaporated to dryness. The residue was then quantitatively transferred to a GC vial and re-dissolved in 80 μl CH2Cl2. An aliquot was directly injected into the GC.
# GC separation was performed using an Agilent 6890 system and was monitored with an Agilent 5973 Network MS Quadropole. The selected ion mode function was applied to record the characteristic molecular ions (cyclopamine: 124, 396; jervine: 110, 124). Within a set of samples the response values for the specific ions were used to compare relative levels of alkaloids. A mixture of commercially available reference compounds (cyclopamine and jervine) was routinely analyzed for comparison of retention times and fragmentation.
# [4] = system: Sonic hedgehog signal transduction; details: cited from earlier work
# sheep = details: ewes consuming Veratrum during early pregnancy; cited from earlier work
# [5] = system: Veratrum californicum embryos; experiment: Phenolic exudation / oxidative browning during embryo culture; format: cell-based; details: mMS medium containing picloram
# Method: as §1, with “The cultures were kept in the dark, at 25° C. and embryogenic calli were subcultured at one month intervals.” left out
# Frequencies of embryos producing embryogenic calli and frequencies of regenerated green and albino plants were recorded. Oxidative browning percentages of embryos were calculated. […]
# [6] = system: suspension lines A, B and C; experiment: Cryopreservation of the cell suspension lines A, B and C; format: cell-based, Veratrum californicum; details: 5% (v/v), after osmotic dehydration
# Method: The suspension lines A, B and C were cryopreserved by using a Kryo10 device (Planer Biomed). The suspensions were subcultured 4 to 5 days prior to the start of the cryopreservation experiment. A dehydration procedure as follows was applied: I) Sugar alcohol concentration of the suspension was adjusted to 0.2 M by adding five times small aliquots of 4 M sorbitol during a period of 30 minutes. After sorbitol additions, the suspensions were incubated under normal growth conditions for 24 hours (in the dark, 25° C., on a rotary shaker (90 rpm)). II) Sugar alcohol concentration was adjusted to 0.4 M by 4 M sorbitol and incubations were carried out as in step I). The dehydrated suspensions were transferred to ice and DMSO was added to reach 5% (v/v) concentration. Cell:medium ratio was adjusted to 1:2 and suspensions were packed into ampulles. Protectant-treated suspensions were kept on ice for a period of 100 minutes. A freezing protocol as follows was applied: I) A rate of 10° C./min to reach 0° C. was followed by II) incubation at 0° C. for 20 minutes. The freezing was finalized by using III) a rate of 1° C./min to reach −40° C. and then IV) samples were immersed in liquid nitrogen. Thawing of cryopreserved samples was carried out by immersing the suspension ampulles straight from liquid nitrogen to a 40° C. water bath for 2 minutes. […] Cell division and growth of the cultures were monitored.
# [7] = medium AA, data from 5 replicates
# [8] = medium MS, data from 5 replicates
# [9] = medium R2M, data from 5 replicates
# [10] = medium mMS, data from 5 replicates
# [11] = growth regulator 2 mg/l, average over mMS, R2M, AA
# [12] = growth regulator 2 mg/l, medium AA
# [13] = growth regulator 2 mg/l, medium R2M
# [14] = growth regulator 2 mg/l, medium mMS
# [15] = growth regulator 4 mg/l, average over mMS, R2M, AA
# [16] = growth regulator 4 mg/l, medium AA
# [17] = growth regulator 4 mg/l, medium R2M
# [18] = growth regulator 4 mg/l, medium mMS
# [19] = growth regulator 7 mg/l, average over mMS, R2M, AA
# [20] = growth regulator 7 mg/l, medium AA
# [21] = growth regulator 7 mg/l, medium R2M
# [22] = growth regulator 7 mg/l, medium mMS
compound,measurement,setting,value
"O=C(O)COc1ccc(Cl)cc1Cl [2,4-D]","% of embryogenesis, Average",[1]; average over the five media,52.33c %
same,% of embryogenesis,[1]; [7],43.43%
same,% of embryogenesis,[1]; [8],50.52%
same,% of embryogenesis,[1]; [9],58.85%
same,% of embryogenesis,[1]; [10],55.32%
same,% of embryogenesis,[2],53.41%
same,growth of the suspension line B,suspension line B,improved the growth
"CC/C=C\CC1C(=O)CCC1CC(=O)OC (centres unmarked) [methyl-jasmonate, methyl jasmonate]",production of cyclopamine and jervine upon elicitation,[3],showed the production of cyclopamine and jervine
"O=C(O)Cc1cccc2ccccc12 [NAA, 1-naphthaleneacetic acid]","% of embryogenesis, Average",[1]; average over the five media,67.70a %
same,"% of embryogenesis, Average",[1]; [11],59.35b %
same,% of embryogenesis,[1]; [12],48.95%
same,% of embryogenesis,[1]; [13],63.75%
same,% of embryogenesis,[1]; [14],65.35%
same,"% of embryogenesis, Average",[1]; [15],70.74a %
same,% of embryogenesis,[1]; [16],64.21%
same,% of embryogenesis,[1]; [17],74.32%
same,% of embryogenesis,[1]; [18],73.67%
same,"% of embryogenesis, Average",[1]; [19],72.15a %
same,% of embryogenesis,[1]; [20],68.06%
same,% of embryogenesis,[1]; [21],73.01%
same,% of embryogenesis,[1]; [22],75.37%
same,% of embryogenesis,[1]; [7],62.04%
same,% of embryogenesis,[1]; [8],62.62%
same,% of embryogenesis,[1]; [9],73.95%
same,% of embryogenesis,[1]; [10],74.93%
same,% of embryogenesis,[2],64.98%
same,growth of the suspension line B,suspension line B,improved the growth
CC1=C2C[C@H]3[C@@H](CC=C4C[C@@H](O)CC[C@@]43C)[C@@H]2CC[C@]12O[C@@H]1C[C@H](C)CN[C@H]1[C@H]2C [cyclopamine],effect on Sonic hedgehog signal transduction,[4],selectively blocks Sonic hedgehog signal transduction
same,teratogenicity,sheep,responsible teratogens
CC1=C2C(=O)[C@H]3[C@@H](CC=C4C[C@@H](O)CC[C@@]43C)[C@@H]2CC[C@]12O[C@@H]1C[C@H](C)CN[C@H]1[C@H]2C [jervine],teratogenicity,sheep,responsible teratogens
"COc1c(Cl)ccc(Cl)c1C(=O)O [Dicamba, dicamba]","% of embryogenesis, Average",[1]; average over the five media,55.44bc %
same,% of embryogenesis,[1]; [7],51.24%
same,% of embryogenesis,[1]; [8],50.90%
same,% of embryogenesis,[1]; [9],58.67%
same,% of embryogenesis,[1]; [10],60.79%
same,% of embryogenesis,[2],55.61%
"Nc1c(Cl)c(Cl)nc(C(=O)O)c1Cl [Picloram, picloram]","% of embryogenesis, Average",[1]; average over the five media,70.82a %
same,"% of embryogenesis, Average",[1]; [11],63.24B %
same,% of embryogenesis,[1]; [12],51.43%
same,% of embryogenesis,[1]; [13],68.53%
same,% of embryogenesis,[1]; [14],69.76%
same,"% of embryogenesis, Average",[1]; [15],72.96A %
same,% of embryogenesis,[1]; [16],62.59%
same,% of embryogenesis,[1]; [17],75.73%
same,% of embryogenesis,[1]; [18],80.57%
same,"% of embryogenesis, Average",[1]; [19],72.50A %
same,% of embryogenesis,[1]; [20],59.97%
same,% of embryogenesis,[1]; [21],76.07%
same,% of embryogenesis,[1]; [22],81.46%
same,% of embryogenesis,[1]; [7],59.75%
same,% of embryogenesis,[1]; [8],69.32%
same,% of embryogenesis,[1]; [9],75.40%
same,% of embryogenesis,[1]; [10],81.33%
same,percentage of embryos producing phenolic exudates,[5],18.9%
same,% of embryogenesis,[2],68.32%
C[S+](C)[O-] [DMSO],cryoprotectant effect,[6],sufficient as a cryoprotectant
